Laboratory results as given in patent publication US20140086881A1, “GOOD HEALTHY CELLS FOUND IN PROTEINS, THEIR APPLICATIONS, AND PROCESS OF MAKING A MEDIUM TO HARVEST THE CELLS” (priority 2012, published 2014).
Like-named read-outs stand apart in the source and are kept apart here.

Experiments:
[1] = tested on: Adjuvant-Induced Arthritis (AIA); test: Adjuvant-Induced Arthritis (AIA) in Lewis rats; conditions: 35 days and 45 days treatment sections
HBV = HBV mouse hydrodynamic injection (HDI) model; assay type: in vivo, BALB/c mice; conditions: therapeutically-treated mice, from day 3 post HDI to the end
Excerpt: Hydrodynamic injection (HDI) is an in vivo gene delivery technology. It refers to transiently transfect the mouse liver cells with a foreign gene via tail vein injection of a large volume saline containing plasmid within a few seconds. Taking the advantage of the liver-targeting manner of hydrodynamic injection, a single hydrodynamic injection of a replication-competent HBV DNA, could result in HBV replication in mouse liver shortly. This HBV hydrodynamic injection model on immunocompetent mice is a convenient and reproducible animal model for anti-HBV compound screening in vivo, which has been successfully established in WuXi ID department.
• 3.1 Hydrodynamic injection and compound administration • 3.1.1. From day −7 to day 0, all 5 mice in group 4 were administrated i.p./i.v. with test article daily for 8 days according to Table 14.2. • 3.1.2. On day 0, all groups of mice were hydrodynamicly injected via tail vein with pcDNA3.1/HBV plasmid DNA in a volume of normal saline equal to 8% of a mouse body weight. […]
• 3.2.1.1 Isolate DNA from 50 μl plasma using QIAamp 96 DNA Blood Kit. […] Run qPCR for HBV DNA quantification. a) Dilute HBV plasmid standard by 10-fold from 10^7 copies/μl to 10 copies/μl. b) Prepare qPCR mix as shown below. […]
HBV DNA quantity=DNA determined by HBV primer-DNA determined by plasmid primer. […]

HBV in HepG2.2.15 = test: Anti-HBV potency in stable HBV cell line (HBV DNA real time PCR); assay type: cell-based; conditions: Hepatitis B virus
Protocol: Lamivudine is diluted with 3-fold for 9 concentrations.
i) Cell culture medium: RPM 1640-4% FBS-1% Pen/Strep-1% Glutamine ii) HepG2.2.15 cell culture: Grow the cells in T75 flask. Incubated at 37° C., 95% humidity, 5% CO2.
f) Refresh protein-containing medium on day 3 of drug treatment. g) Collect culture media from the HepG2.2.15 plates on day 6 followed by HBV DNA extraction using QIAamp 96 DNA Blood Kit (QIAGEN #51161). 2) Real time PCR for HBV DNA quantification. a) Dilute HBV plasmid standard by 10-fold from 0.1 ng/ul to 0.000001 ng/ul. b) Prepare realtime PCR mix as shown blow.
c) Add 15 ul/well PCR mix to 96-well optical reaction plates. d) Add 10 ul of the diluted plasmid standard to C12-H12. […]
3) Data analysis: A standard curve is generated by plotting Ct value vs. the amount of the HBV plasmid standard, and the quantity of each sample is estimated based on the Ct value projection on the standard curve; percent of HBV inhibition by protein or compound is calculated using the following equation: % Inh.=[1−(HBV quantity of sample−HBV quantity of HepG2 control)/(HBV quantity of 0% Inhibition control−HBV quantity of HepG2 control)]*100.

HCV 1b replicon = test: microbe, parasite or virus in culture; assay type: cell-based; conditions: Hepatitis C virus, read-out: EC50 (uM) 1b
Protocol: (§1) The cells are counted using hemocytometer.
(§2) Incubate plate at 5% CO2, 37° C. for 4 hours.
(§3) Dose-response curves are plotted using Prism.

HCV 1a replicon = test: microbe, parasite or virus in culture; assay type: cell-based; conditions: Hepatitis C virus, read-out: EC50 (uM) 1a
Protocol: as §1, §2, §3

HCV 2a replicon = test: microbe, parasite or virus in culture; assay type: cell-based; conditions: Hepatitis C virus, read-out: EC50 (uM) 2a
Protocol: as §1, §2, §3

atherosclerotic model = conditions: for Animal Wounded, Total: n = 10, reason: fighting each other; for Animal Dead, Total: n = 10 ApoE ko mice, high fat diet
Excerpt: 10 ApoE ko mice were fed with regular chow diet and used as negative control group. 50 ApoE ko mice were fed with high fat diet (35% kcal fat, 1% cholesterol) for 8 weeks, and then the plasma samples were collected for lipid profile measurement before the treatment. 50 ApoE ko mice were assigned into 5 groups based on the fasting overnight plasma TC and HDL level.
• 23 Dec. 2011: 60 ApoE mice arrived at chempartner and were housed in the animal facility in the building #3 for the acclimation. • 6 Jan. 2012: Measured the body weight for each mouse. 50 mice were fed with high fat diet and 10 mice were fed with normal chow diet. • 2 Mar. 2012: All mice were fasted over night and plasma samples (about 300 ul whole blood) were collected for lipid profile measurement before treatment with RAAS antibody. • 19 Mar. 2012 to 6 Apr. […] 2012: All mice were fasted over night and plasma sample for each mouse (about 300 ul whole blood) was collected for lipid profile measurement after 16 weeks treatment. Blood glucose was also measured for each mouse. • 9 Jul. 2012: The study was terminated after 16 weeks treatment. Measure BW, sacrificed each mouse, dissected the aorta, heart, liver and kidney and fixed them in 4% PFA.
Antibody products were administrated by intraperitoneal injection every two days (Monday, Wednesday, and Friday). and the positive compound was administered by p.o every day.
The body weight was weighed weekly during the period of treatment.
The fasting overnight blood glucose was measured at the end of study by Roche glucometer.
About 300 ul of blood sample was collected from the orbital vein for each mouse and centrifuged at 7000 rpm for 5 min at 4° C. and the plasma lipid profile was measured by Roche Modular automatic biochemistry analyzer in DaAn Medical Laboratory
After RAAS antibody products treatment for 16 weeks, all mice were sacrificed. Measured body weight and collected blood sample for each mouse. Weighed liver weight and saved a tiny piece of liver into 4% paraformaldehyde (PFA) fixation solution for further analysis. At same time, take the photos with heart, lung, aortas and two kidneys.
1. Sacrificed the mice and dissected the heart, aorta, and arteries under dissecting microscope.
4. Stain with freshly prepared Oil Red O working solution 10 min. • 1). Oil red O stock stain: 0.5% powder in isopropanol • 2). Working solution: dilute with distilled water (3:2) and filter with membrane (0.22 um)
Scanning the glasses slides with the Aperio ScanScope system and analyze with the image proplus software to measure the area of atherosclerotic plaque lession. The results were expressed as the percentage of the total aortic surface area covered by lesions. The operation procedure of software was briefly described as follow: Converted the sys version photos into JPG version, then calibrated it and subsequently selected the red regions and then calculate the total area automatically by image proplus software.
The results were expressed as the Mean±SEM and statistically evaluated by student's t-test.
Area Percent (%)=Sum Area of Atherosclerotic Plaque (Mm^2)/Whole Area of Vascular Inner Wall (Mm^2)

lung cancer cells = test: KH mediums vs lung cancer cells, in-vitro well study; assay type: cell-based
Excerpt: From which other companies in China have produced Human Albumin for use in the cell growth instead of feta bovine serum and also
The above have been discovered in In-Vitro well study but not tested for CCK8 to measure the degree of inhibition of the cancer cells by each of the mediums. Such a study has been performed on Oct. 4, 2012 it is amazing to find out that all series of medium from KH100, KH200 and KH300 have different level of effect on the inhibition of the lung cancer, leukemia, gastric and breast both solid tumors and blood cancer have been tested.

C[C@@H]1C[C@H]2[C@@H]3CCC4=CC(=O)C=C[C@]4(C)[C@@]3(F)[C@@H](O)C[C@]2(C)[C@@]1(O)C(=O)CO [Dex, Dexamethasone]
body weight compared with saline group [1]: reduction of body weight

C=C1[C@H](CO)[C@@H](O)C[C@@H]1n1cnc2c(=O)[nH]c(N)nc21 [ETV, Entecavir]
HBV replication in plasma (HBV): significant inhibition

Nc1ccn([C@@H]2CS[C@H](CO)O2)c(=O)n1 [Lamivudine]
EC50 (HBV in HepG2.2.15): 0.0062 µM

NC(=O)c1ncn([C@@H]2O[C@H](CO)[C@@H](O)[C@H]2O)n1 [Ribavirin]
EC50 (HCV 1b replicon): 39 µM | EC50 (HCV 1a replicon): 57.6 µM | EC50 (HCV 2a replicon): 37.4 µM

APOA 1
Animal Wounded, Total (atherosclerotic model; high dose 0.1 ml i.p.): 1 | Animal Dead, Total (atherosclerotic model; high dose 0.1 ml i.p., reason: Fighting): 1 | Animal Wounded, Total (atherosclerotic model; low dose): 3 | Animal Dead, Total (atherosclerotic model; low dose, reasons: gastrorrhagia, urinary tract infection (2)): 3 | Animal Wounded, Total (atherosclerotic model; mid dose 0.075 ml i.p.): 1 | Animal Dead, Total (atherosclerotic model; mid dose 0.075 ml i.p., reason: Fighting): 1

bovine human albumin: animal protein product
effect on lung cancer cells (lung cancer cells): inhibited lung cancer cell growth
